Measured values reported in patent publication US9078441B2, “Antimicrobial flush solutions” (Board of Regents, The University of Texas System, priority 2003, dated 2015).

Experiments:
[1] = system: C. parapsilosis; assay: Modified Robbins device (MRD) in vitro colonization model, Candida parapsilosis in biofilm on silicone catheter segments; assay type: cell-based; conditions: for 24 h Growth after 15 Minutes in Drug Mean CFU C. Parapsilosis / suppression / eradication / regrowth of C. parapsilosis embedded in biofilm, in words: 15 min exposure; for 24 h Growth after 15 Minutes in Drug Mean CFU C. Parapsilosis: then re-incubation in broth for 24 h; for suppression / eradication / regrowth of C. parapsilosis embedded in biofilm, in words: with or without 24 h re-incubation in broth; for 15 Minutes in Drug Mean CFU C. Parapsilosis: cultured immediately after 15 min exposure at 37° C.
Text: (§1) The in vitro model utilized a modified Robbins device (MRD) to study the colonization of catheter segments with organisms embedded in biofilm. The modified Robbins device has been previously described (Nickel et al., 1991; Evans et al., 1987, see also U.S. Pat. No. 5,362,754) and is constructed from an acrylic block, 42 cm long with a lumen of 2×10 mm. It consists of 25 evenly spaced specimen plugs, each connected to a silicone catheter segment (Allegiance Healthcare Corp., McGaw Park, Ill.) whose anterior surface (0.3 cm^2) comes in conta-ct with the flushed infusate. After placing the catheter segments in the specimen plug of the modified Robbins device, the entire apparatus was gas sterilized using ethylene oxide. A 500 ml 5% dextrose in water (5% D5/W) was connected to the modified Robbins device through an intravenous tubing administration set and was subsequently infected with an innoculum of 10^8 CFU/ml of methicillin-resistant Staphylococcus aureus (MRSA), to produce an infected infusate at the concentration of 2×10^5 CFU/ml. The biofilm-producing S. aureus isolates were obtained from patients with CRBSI. In another series of experiments, 500 ml 5% D5/W bag was infected with a biofilm-producing C. parapsilosis using an inoculum of 10^5 CFU/ml to produce an infected infusate at a concentration of 2×10^2 CFU/ml of C. parapsilosis. The whole system was incubated at 37° C. and the infected infusate was flushed through the MRD using a peristaltic pump permitting the infusate to flow at the rate of 60 ml/hour for 8 hours. The modified Robbins device was left to incubate for a total of 18 hours (another 10 hours). Subsequently, the infected bag was removed and a 250 ml saline sterile bag which was infused through the MRD at 125 ml/hour for 2 hours in order to remove all free floating organisms. To insure biofilm formation, at least three catheter segments were randomly removed from the 25 evenly spaced catheter segments in the MRD and studied by scanning electron microscopy. This was repeated for every organism tested.
(§2) The remaining catheter segments were removed and each segment was placed in a tube containing 2 ml of one of the following broth solutions: (1) Mueller-Hinton broth (Becton Dickinson & Co., Cockeysville, Md.); (2) EDTA at a concentration of 30 mg/ml in broth (Abbott Laboratories, North Chicago, Ill.); (3) minocycline at 3 mg/ml in broth (Wyeth-Ayerst Laboratories, Collegeville, Pa.); (4) minocycline (3 mg/ml) and EDTA combination (M-EDTA) in broth; (5) 25% ethanol (ETOH) solution in broth; (6) minocycline at 3 mg/ml in 25% ethanol solution in broth; (7) EDTA 30 mg/ml in 25% ethanol solution in broth; and (8) M-EDTA in 25% ethanol solution in broth. The experiments were repeated in triplicate or quadruplicate, and during each experiment, 2-5 catheter segments were exposed to the same solution for only 15 minutes at 37° C. Subsequently, some of the catheter segments were immediately removed and cultured by scrape sonication. Other alternating catheter segments were removed, placed in broth (TSB), incubated for 24 hours, and then cultured by scrape sonication. This added step of re-incubating catheter segments in broth after the 15 minutes exposure was done to determine whether these agents suppressed the growth of organisms embedded in biofilm or eradicated them. The surface of the catheter segment that was exposed to the infected infusate was scraped with a sterile wooden applicator stick and placed, along with the stick, in a tube containing 0.5 ml of trypticase soy broth. The tubes were sonicated for five minutes; 0.1 ml of the sonicated broth solution in the tube was pipetted and plated over a blood agar plate, which was incubated at 37° for 24 hours. The agar plates were checked for any contaminants. The isolated organisms had to be of the same species and colonial morphology as the original organism used to infect the infusate.

[2] = system: methicillin-resistant Staphylococcus aureus (MRSA); assay: Modified Robbins device (MRD) in vitro colonization model, MRSA in biofilm on silicone catheter segments; assay type: cell-based; conditions: for 24 h growth after 15 min in drug mean CFU MRSA / suppression / eradication / regrowth of MRSA embedded in biofilm, in words: 15 min exposure; for 24 h growth after 15 min in drug mean CFU MRSA: then re-incubation in broth for 24 h at 37° C.; for suppression / eradication / regrowth of MRSA embedded in biofilm, in words: with or without 24 h re-incubation in broth; for 15 minutes in Drug mean CFU MRSA: catheter segments cultured by scrape sonication immediately after 15 min exposure at 37° C., confluent growth counted as 500
Text: as §1, §2

[3] = system: Candida parapsilosis; assay: Silicone disk bioprosthetic colonization Candida parapsilosis model; assay type: cell-based; conditions: for suppression / eradication of Candida parapsilosis growth on silicone disks, in words / 1 hour in Drug Mean CFU C. Parapsilosis: 1 hour exposure; for 1 hour in Drug Mean CFU C. Parapsilosis / 24 h Growth after 1 hour in Drug Mean CFU C. Parapsilosis: silicone disks; for 24 h Growth after 1 hour in Drug Mean CFU C. Parapsilosis: exposure then 24 h reincubation in TSB
Method: (§3) On day 1, pieces of biofilm were prepared. Sterile (Ethylene Oxide Gas Sterilized) silicone disks were placed in 5 ml sterile snap top Falcon tubes and 0.5 ml of pooled plasma added. This was followed by incubation (while rocking) overnight at 37° C.
(§4) On day 2, the bacteria was added to form the biofilm. Using sterile plastic transfer pipettes, the plasma was suctioned out from the tubes and replaced with 0.5 ml of bacterial inoculum (50 ml of Mueller-Hinton broth containing 4-5 colonies of freshly grown bacteria). The tubes were incubated overnight at 37° C.
(§5) On day 3, a drug was added in an attempt to kill the bacteria. Before adding the drug, the pieces were washed in 0.5 ml of 0.9% saline in order to remove any planktonic bacteria. The tubes (containing the biofilm disks and saline) were placed in the incubator at 37° C. for 30 minutes. The saline was then pipetted out using sterile plastic transfer pipettes (taking care not to disturb the pieces too much). The silicone disks were then transferred to new 5 ml snap-top falcon tubes containing 0.5 ml of the drug solution to be tested. The drug solutions tested were as follows: (1) minocycline 3 mg/ml; (2) EDTA 30 mg/ml; (3) 25% ethanol solution; (4) EDTA 30 mg/ml in 25% ethanol; (5) minocycline 3 mg/ml in 25% ethanol; (6) minocycline 3 mg/ml with EDTA 30 mg/ml; and (7) triple combination of minocycline 3 mg/ml and EDTA 30 mg/ml in 25% ethanol solution. The disks were allowed to sit in the drug for 1 hour. The drug was then suctioned out using a plastic transfer pipette. The pieces were once again washed with 0.5 ml saline (added, and shaken for 30 seconds). The disks were then transferred to 15 ml snap-top falcon tubes containing 5 ml of 0.9% saline. The pieces were sonicated for 5 minutes, and then vortexed for 30 seconds. 100 microliters (μl) of the saline was then plated on a room temperature TSAII blood agar plate, and evenly spread using a sterile glass spreader. The plates were incubated overnight at 37° C.
(§6) For the 24 hour reincubation studies, pieces of biofilm were prepared the same exact way as the regular pieces. Before adding the drug, the pieces were washed in 0.5 ml of 0.9% saline in order to remove any planktonic bacteria. The tubes (now containing the biofilm disks and saline) were placed in the incubator at 37° C. for 30 minutes. The saline was then pipetted out using sterile plastic transfer pipettes (taking care not to disturb the pieces too much). The silicone disks were then transferred to new 5 ml snap-top falcon tubes containing 0.5 ml of the drug to be tested. […] The drug was then suctioned out using a plastic transfer pipette. The pieces were once again washed with 0.5 ml saline (added, and shaken for 30 seconds). The pieces were then transferred to new sterile 5 ml snap-top falcon tubes containing 0.5 ml of sterile trypticase soy broth (TSB) and then placed in the incubator at 37° C. overnight.
(§7) On day 4, colonies were counted and the results recorded. The colonies were hand counted, and counting was stopped at 100 colonies. Anything greater was considered >100 colonies. The counts were recorded, and multiplied by a factor of 50 because of the dilution factor between the 5 ml of saline containing the disk and the 100 μl that was plated onto the TSAII blood agar plates. The pieces were then sonicated (in the same TSB that grew overnight) for 5 minutes. 100 μl was then plated on TSAII blood agar plates, and the plates were placed in the incubator to grow overnight at 37° C.
(§8) On day 5, the regrowth pieces were counted. The colonies were hand counted, and counting was stopped at 100 colonies. Anything greater was considered >100 colonies. The counts were recorded, and multiplied by a factor of 5 because of the dilution factor between the 0.5 ml of TSB containing the disk and the 100 μl that was plated onto the TSAII blood agar plates.

[4] = system: MRSA; assay: Silicone disk bioprosthetic colonization MRSA model; assay type: cell-based, Staphylococcus aureus; conditions: for suppression / eradication / regrowth of bioprosthetic MRSA colonization of silicone disks, in words / 1 hour in Drug Mean CFU ± std. error: 1 hour exposure; for suppression / eradication / regrowth of bioprosthetic MRSA colonization of silicone disks, in words: with or without 24 h incubation; for 1 hour in Drug Mean CFU ± std. error / 24 h Growth after 1 hour in Drug Mean CFU ± std. error: MRSA on silicone disks; for 1 hour in Drug Mean CFU ± std. error: up to 5,000 CFU/disk; for 24 h Growth after 1 hour in Drug Mean CFU ± std. error: exposure then 24 h reincubation in TSB
Method: as §3, §4, §5, §6, §7, §8

[5] = system: organisms that colonize the lumen of the catheter; conditions: dwell time of 4-24 hours; cited from earlier work

Row | Compound | 24 h Growth after 15 Minutes in Drug Mean CFU C. Parapsilosis [1] [CFU] | suppression / eradication / regrowth of C. parapsilosis embedded in biofilm, in words [1] | 15 Minutes in Drug Mean CFU C. Parapsilosis [1] [CFU] | 24 h growth after 15 min in drug mean CFU MRSA [2] [CFU] | suppression / eradication / regrowth of MRSA embedded in biofilm, in words [2] | 15 minutes in Drug mean CFU MRSA [2] [CFU] | suppression / eradication of Candida parapsilosis growth on silicone disks, in words [3] | 1 hour in Drug Mean CFU C. Parapsilosis [3] [CFU] | 24 h Growth after 1 hour in Drug Mean CFU C. Parapsilosis [3] [CFU] | suppression / eradication / regrowth of bioprosthetic MRSA colonization of silicone disks, in words [4] | 1 hour in Drug Mean CFU ± std. error [4] [CFU] | 24 h Growth after 1 hour in Drug Mean CFU ± std. error [4] [CFU] | 24 h growth after 15 min in drug mean CFU MRSA ([2]; listed as 25% ethanol solution) [CFU] | 15 minutes in Drug mean CFU MRSA ([2]; listed as 25% ethanol solution) [CFU] | eradication of microbial organisms embedded in biofilm from catheter surfaces, in words [5]
1 | CN(C)c1ccc(O)c2c1C[C@H]1C[C@H]3[C@H](N(C)C)C(O)=C(C(N)=O)C(=O)[C@@]3(O)C(O)=C1C2=O [3 mg/ml minocycline, minocycline] | 500.0 ± 0.0 | failed to eradicate | 138.3 ± 111.8 | 308.3 ± 151.1 | some decrease in colonization | 323.7 ± 199.0 | failed to suppress or eradicate | 5000.0 ± 0.0 | 5000.0 ± 0.0 | failed to suppress | 5000.0 ± 0.0 | 5000.0 ± 0.0 | – | – | –
2 | CCO [25% EtOH in MHB, ethanol] | 142.9 ± 225.9 | regrowth was noted | 0 | 500.0 ± 0.0 | – | 138.0 ± 193.8 | failed to completely suppress | 1933 ± 601.6 | 3875.0 ± 618.3 | failed to suppress | 2900.0 ± 722.8 | 5000.0 ± 0.0 | 500 | 138 | –
3 | O=C(O)CN(CCN(CC(=O)O)CC(=O)O)CC(=O)O [30 mg/ml EDTA, ethylenediamine-N,N,N′,N′,-tetraacetic acid] | 500.0 ± 0.0 | failed to eradicate | 160 ± 78.8 | 500.0 ± 0.0 | failed to eradicate | 479.6 ± 44.9 | failed to suppress or eradicate | 5000.0 ± 0.0 | 5000.0 ± 0.0 | failed to suppress | 5000.0 ± 0.0 | 5000.0 ± 0.0 | – | – | –
4 | CN[C@H](CC(C)C)C(=O)N[C@H]1C(=O)N[C@@H](CC(N)=O)C(=O)N[C@H]2C(=O)N[C@H]3C(=O)N[C@H](C(=O)N[C@H](C(=O)O)c4cc(O)cc(O)c4-c4cc3ccc4O)[C@H](O)c3ccc(c(Cl)c3)Oc3cc2cc(c3O[C@@H]2O[C@H](CO)[C@@H](O)[C@H](O)[C@H]2O[C@H]2C[C@](C)(N)[C@H](O)[C@H](C)O2)Oc2ccc(cc2Cl)[C@H]1O [vancomycin alone, vancomycin] | – | – | – | – | – | – | – | – | – | – | – | – | – | – | failed to eradicate
